The structures appear in SMILES notation. Positions count from the first letter of the chain named.

This note sets out measurements from article doi:10.1101/2020.11.21.391136v1 (biorxiv, 2020).

Experiment [1] has as its target T1, A3R (Hs-A3R) L264T (Homo sapiens, UniProt P0DMS8, L264T).
T1 sequence (P0DMS8 1-318 L264T): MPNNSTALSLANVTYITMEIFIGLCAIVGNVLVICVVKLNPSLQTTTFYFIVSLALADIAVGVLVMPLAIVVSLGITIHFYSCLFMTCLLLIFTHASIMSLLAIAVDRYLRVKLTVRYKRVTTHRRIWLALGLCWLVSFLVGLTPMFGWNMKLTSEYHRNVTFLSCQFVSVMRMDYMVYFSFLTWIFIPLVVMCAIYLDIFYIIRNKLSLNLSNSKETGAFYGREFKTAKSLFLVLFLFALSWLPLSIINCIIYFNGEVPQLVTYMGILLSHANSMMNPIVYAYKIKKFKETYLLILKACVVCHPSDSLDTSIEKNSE
The experiment in a line: cell-based. The arrangement: species or system HEK293A.

Experiment [2] addresses T2, A2AR (Homo sapiens, UniProt P29274). Nature of the experiment: TGF-alpha shedding assay, HEK293A. The class given is cell-based.
In experiment [3] the target is T3, A1R T270L (Homo sapiens, UniProt P30542, T270L).
T3 sequence (P30542 1-326 T270L): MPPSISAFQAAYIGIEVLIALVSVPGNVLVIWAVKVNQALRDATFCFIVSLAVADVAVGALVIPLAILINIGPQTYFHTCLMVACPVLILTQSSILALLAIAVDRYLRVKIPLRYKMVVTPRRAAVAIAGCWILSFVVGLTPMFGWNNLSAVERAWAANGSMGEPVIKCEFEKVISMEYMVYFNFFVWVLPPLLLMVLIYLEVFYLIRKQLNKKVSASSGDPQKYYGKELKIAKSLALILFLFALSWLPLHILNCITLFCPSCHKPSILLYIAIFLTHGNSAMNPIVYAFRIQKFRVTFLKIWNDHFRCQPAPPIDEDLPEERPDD
Nature of the experiment: cell-based. The arrangement: species or system HEK293A. As to conditions: HEK293-A, read-out: Emax (%).

Experiment [4] concerns the target T4, A1R (Homo sapiens, UniProt P30542).
T4 sequence (P30542 1-326): T3 sequence (P30542 1-326 T270L) with L270T
Nature of the experiment: TGF-alpha shedding assay, HEK293A. Format: cell-based.

In experiment [5] the target is T3, A1R T270L. The experiment in a line: cell-based. Set-up: species or system HEK293A.
The target in experiment [6] is T2, A2AR. The experiment in a line: cell-based. Set-up: species or system HEK293A. As to conditions: HEK293-A, read-out: Emax (%).
The target in experiment [7] is T5, A3R (Hs-A3R) (Homo sapiens, UniProt P0DMS8, I253T).
T5 sequence (P0DMS8 1-318 I253T): T1 sequence (P0DMS8 1-318 L264T) with I253T, T264L
Nature of the experiment: cell-based. The arrangement: species or system HEK293A.

In experiment [8] the target is T6, A1R (Homo sapiens, UniProt P30542, E172V).
T6 sequence (P30542 1-326 E172V): T3 sequence (P30542 1-326 T270L) with E172V, L270T
Nature of the experiment: cell-based. As to conditions: HEK293-A, read-out: Emax (%). The arrangement: species or system HEK293A.

Experiment [9] deals with T7, Ss-A3R (Sus scrofa, UniProt F1SBN8).
T7 sequence (F1SBN8 1-318): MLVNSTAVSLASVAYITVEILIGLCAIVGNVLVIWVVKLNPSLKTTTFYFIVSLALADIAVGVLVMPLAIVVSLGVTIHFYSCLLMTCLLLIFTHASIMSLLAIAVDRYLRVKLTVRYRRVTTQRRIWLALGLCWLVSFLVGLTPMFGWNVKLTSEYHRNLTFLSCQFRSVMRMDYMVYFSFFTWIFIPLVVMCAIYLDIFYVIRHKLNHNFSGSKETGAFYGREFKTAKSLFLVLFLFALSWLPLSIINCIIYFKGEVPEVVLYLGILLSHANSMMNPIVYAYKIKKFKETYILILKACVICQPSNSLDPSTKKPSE
Nature of the experiment: TGF-alpha shedding assay, HEK293A. Format: cell-based.

The target in experiment [10] is T4, A1R. The arrangement: species or system HEK293A. As to conditions: % AP-TGFα release, not normalised to a reference agonist.
Experiment [11] addresses A2AR (Homo sapiens, UniProt P29274, T256I). The experiment in a line: cell-based. Set-up: species or system HEK293A. As to conditions: HEK293-A, read-out: Emax (%).
Experiment [12] addresses T8, A2BR (Homo sapiens, UniProt P29275).
T8 sequence (P29275 1-332): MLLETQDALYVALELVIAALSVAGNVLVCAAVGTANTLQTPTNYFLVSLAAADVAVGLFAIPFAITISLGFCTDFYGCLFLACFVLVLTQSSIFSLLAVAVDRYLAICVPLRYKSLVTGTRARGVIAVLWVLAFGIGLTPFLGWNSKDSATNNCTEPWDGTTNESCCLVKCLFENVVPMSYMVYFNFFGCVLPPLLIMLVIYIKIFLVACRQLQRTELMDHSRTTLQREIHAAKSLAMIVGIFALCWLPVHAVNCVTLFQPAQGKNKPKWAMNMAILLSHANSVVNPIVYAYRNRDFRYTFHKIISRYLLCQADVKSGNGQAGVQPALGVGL
Nature of the experiment: cell-based. Set-up: species or system HEK293A.

The target in experiment [13] is T8, A2BR. Nature of the experiment: TGF-alpha shedding assay, HEK293A. Format: cell-based.
Experiment [14] concerns the target T9, A1R (Homo sapiens, UniProt P30542, T257I).
T9 sequence (P30542 1-326 T257I): T3 sequence (P30542 1-326 T270L) with T257I, L270T
The experiment in a line: cell-based. Set-up: species or system HEK293A. As to conditions: HEK293-A, read-out: Emax (%).

Experiment [15] deals with T10, A3R (Hs-A3R) (Homo sapiens, UniProt P0DMS8, L264M).
T10 sequence (P0DMS8 1-318 L264M): T1 sequence (P0DMS8 1-318 L264T) with T264M
Nature of the experiment: cell-based. The arrangement: species or system HEK293A.

Experiment [16] deals with T11, A3R (Hs-A3R) (Homo sapiens, UniProt P0DMS8, V169E).
T11 sequence (P0DMS8 1-318 V169E): T1 sequence (P0DMS8 1-318 L264T) with V169E, T264L
Nature of the experiment: cell-based. The arrangement: species or system HEK293A.

The target of experiment [17] is A2AR (Homo sapiens, UniProt P29274, M270L). Nature of the experiment: cell-based. Set-up: species or system HEK293A. As to conditions: HEK293-A, read-out: Emax (%).
Sequence of A2AR (Homo sapiens, UniProt P29274, M270L) (P29274 whole entry M270L): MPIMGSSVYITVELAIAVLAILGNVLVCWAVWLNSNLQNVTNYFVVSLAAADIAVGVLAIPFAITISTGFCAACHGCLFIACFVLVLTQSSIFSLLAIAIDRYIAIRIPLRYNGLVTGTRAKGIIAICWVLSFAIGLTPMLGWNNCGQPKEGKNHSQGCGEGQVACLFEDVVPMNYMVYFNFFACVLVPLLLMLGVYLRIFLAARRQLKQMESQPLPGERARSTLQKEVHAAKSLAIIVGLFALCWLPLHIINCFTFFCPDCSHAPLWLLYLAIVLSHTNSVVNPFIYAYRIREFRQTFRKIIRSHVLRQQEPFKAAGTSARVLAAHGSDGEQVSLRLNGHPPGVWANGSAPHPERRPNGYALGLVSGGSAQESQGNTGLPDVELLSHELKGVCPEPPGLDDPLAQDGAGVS
Experiment [18] has as its target T12, A3R (Hs-A3R) (Homo sapiens, UniProt P0DMS8).
T12 sequence (P0DMS8 1-318): T1 sequence (P0DMS8 1-318 L264T) with T264L
The experiment in a line: cell-based. The arrangement: species or system HEK293A.

The target of experiment [19] is T1, A3R (Hs-A3R) L264T. The experiment in a line: cell-based. Set-up: species or system HEK293A. The source holds these as a separate data set.
The target in experiment [20] is A2AR (Homo sapiens, UniProt P29274, E169V). The arrangement: species or system HEK293A. As to conditions: % AP-TGFα release, not normalised to a reference agonist.
Sequence of A2AR (Homo sapiens, UniProt P29274, E169V) (P29274 whole entry E169V): as the sequence (P29274 whole entry M270L) above, with E169V, L270M counted along it
The mark [21] stands for this setting: % AP-TGFα release, not normalised to a reference agonist, agonist.

T2 sequence (P29274 whole entry): as the sequence (P29274 whole entry M270L) above, with L270M counted along it
Sequence of A2AR (Homo sapiens, UniProt P29274, T256I) (P29274 whole entry T256I): as the sequence (P29274 whole entry M270L) above, with T256I, L270M counted along it

For the compound `CNc1ncnc2c1ncn2[C@@H]1O[C@H](CO)[C@@H](O)[C@H]1O` [m^6A], the Emax (in general, the size of the effect at its maximum, as opposed to the concentration needed) in [1] (HEK293-A, read-out: Emax (%)) worked out at 27 ± 2.2%; in experiment [3] it was 15 ± 1.6%; in experiment [6], 17 ± 0.57%; in experiment [7] (HEK293-A, read-out: Emax (%)), 41 ± 2.2%; in [8], 32 ± 1.9%; in experiment [11], 30 ± 1.7%. In addition, the Emax is 76 ± 4.7% in experiment [12] (HEK293-A, read-out: Emax (%)); 42 ± 1.2% in [14]; 43 ± 1.7% in experiment [15] (HEK293-A, read-out: Emax (%)); 22 ± 2% in experiment [16] (HEK293-A, read-out: Emax (%)); 3.5 ± 0.68% in [17]; 43 ± 2.1% in experiment [18] (HEK293-A, read-out: Emax (%)). Moreover, the EC50 (usually the concentration that produces a half-maximal response) in experiment [2] came out at 13000 ± 1100 nM; in [4] it was 840 ± 130 nM; in experiment [5], 540 ± 62 nM; in experiment [9], 39 ± 3.1 nM; in experiment [13] it was 51000 ± 6400 nM; in experiment [19] it was 6.4 ± 0.44 nM. For the same compound, the “Emax (%)” value in [10] is 17 ± 2.2%; in experiment [20] it was 29 ± 2.0%.

Regarding `Nc1ncnc2c1ncn2[C@@H]1O[C@H](CO)[C@@H](O)[C@H]1O` [adenosine], the “Emax (%)” value is recorded as 22 ± 0.84% in [1] (setting [21]); 37 ± 2.0% in [7] (setting [21]); 57 ± 1.2% in experiment [12] (setting [21]); 39 ± 2.6% in [15] (setting [21]); 14 ± 4.1% in experiment [16] (setting [21]); 39 ± 0.82% in [18] (setting [21]).
